Experimental findings from article PMC11274643, “Design, Synthesis, Characterization, and Cytotoxicity of New Pyrazolylmethylene-2-thioxoimidazolidin-4-one Derivatives towards Androgen-Sensitive LNCaP Prostate Cancer Cells” (Biomolecules, 2024) are described below.

The subject of data set [1] is Wi38 normal human lung fibroblast cell line. The experiment in a line: MTT in vitro cytotoxicity assay, 24 h incubation. The data set is classed as cell-based. The following applies: WI-38. The method, then: (§1) The antitumor properties of pyrazolylmethylene-2-thioxoimidazolidin-4-one derivatives (3a–p) against androgen-sensitive (AR^+LNCaP; ATCC CRL-1740, Accession: CVCL_0395) and androgen-insensitive (AR^-PC-3; ATCC CRL-1435, Accession: CVCL_D5ZS) human prostate cancer cell lines in addition to normal human lung fibroblast cell line (Wi38, Accession: CVCL_2759) were evaluated by MTT assay. AR^+LNCaP, AR^-PC-3, and Wi38 cell lines were purchased frozen in liquid nitrogen from Egyptian Company for Production of Vaccines, Sera and Drugs, Cairo, Egypt (VACSERA). Tumor cell lines were stored as monolayer cultures in DMEM supplemented with 10% FBS and 1% penicillin–streptomycin. MTT assay was carried out as described previously in the literature. In brief, AR^+LNCaP, AR^-PC-3, and Wi38 cells were cultured into 96-well plates containing 100 µL of culture medium per each well. […] A control containing only culture medium was also applied. The assay was performed in triplicate. The cells were incubated overnight to grow at 37 °C in 5% CO2. After removing the growth medium, 100 µL of MTT (0.4 mg/mL of PBS) were added. After 24 h of incubation, the supernatant was removed and 100 µL of DMSO (Sigma Aldrich, Germany) were then added to each sample. Absorbance at 550 nm was measured. The formula (Reading of extract/Reading of negative control) × 100 was applied to calculate the viability percentage. The IC50 value of test compounds (3a–p) was also determined using CPE measurements of normal Wi38 cells (normal human lung fibroblast cells). The MTT assay was repeated with the test compounds (3i, 3k, 3o, 3j, 3p, and 3m) using the three cell types which were stimulated by 1 nM DHT after 48 h of incubation. IC50 values were estimated using Graph Pad Prism computer software (International Scientific Community, San Diego, CA, USA) from linear regression analysis of the concentration–response curves plotted for each tested compound [36].
(§2) In vitro cytotoxicity assay was performed to elucidate the antitumor properties of the synthesized derivatives of pyrazolylmethylene-2-thioxoimidazolidin-4-one. […] The cytotoxicity assay was performed using MTT assay as described in the Materials and Methods Section 2.4.1. The test compounds were dissolved in DMSO as stock solutions (<0.5% (v/v)) and stored in the dark at −20 °C. The human prostate cancer cells and normal human lung fibroblast cells were subjected to variable doses of the compounds for 24 h.

The subject of data set [2] is AR-PC-3 androgen-insensitive human prostate cancer cell line. The experiment in a line: MTT in vitro cytotoxicity assay, 24 h incubation. Type of data set: cell-based. To be noted: for IC50: Homo sapiens, MTT; for Selective Index Wi38/PC-3: ratio of IC50 values. Here is the method: as §1, §2
Data set [3] concerns AR+LNCaP androgen-sensitive human prostate cancer cell line. Description: MTT in vitro cytotoxicity assay, 24 h incubation. The data set is classed as cell-based. To be noted: for IC50: Homo sapiens, MTT; for Selective Index Wi38/Lncap: ratio of IC50 values. Here is the method: as §1, §2
Data set [4] relates to AR+LNCaP cells. The experiment in a line: Cell apoptosis assay (Annexin V-FITC, flow cytometry). Type of data set: cell-based, human. The following applies: IC50 concentration, 1 nM DHT, 24 h. Here is the method:
Cell apoptosis assay was performed to ensure the efficacy of compounds 3i and 3k against the progression of AR^+LNCaP tumor cell growth in the presence of 1 nM DHT. Untreated AR^+LNCaP and Enzalutamide-treated AR^+LNCaP were used in this assay as negative and positive controls, respectively. AR^+LNCaP cells were precultured in 25 cm^2 flasks. Briefly, 1 nM DHT was then added to the growing cells. […] AR^+LNCaP cells were harvested and fixed with 70% (v/v) ethanol in FBS (Sigma-Aldrich, Germany), then maintained at 4 °C overnight. The cells were resuspended in FBS containing 0.1% (v/v) Triton X-100, 40 µg/mL […], and 0.1 mg/mL RNase then incubated in a dark chamber at 37 °C for 30 min. A flow-cytometer (Becton Dickinson, San Jose, CA, USA) supplemented with an argon ion laser at a wavelength of 488 nm was used to analyze the AR^+LNCaP cell apoptotic stages. Based on the protocol described by Ozgur et al. (2003), analysis of the data was implemented using Multicycle Software (Phoenix Flow Systems, San Diego, CA, USA; http://www.phoenixflow.com/index.html).
The active compounds 3i and 3k were further analyzed to evaluate their antitumor properties against the growth of the AR^+LNCaP prostate cancer cell line. […] Untreated AR^+LNCaP cells and Enzalutamide reference drug were also used as negative and positive controls in this assay, respectively.

Data set [5] has as its system active human caspase-3 in AR+LNCaP cells. Description: Detection of active Caspase 3 in AR+LNCaP cell lysates (Invitrogen Elisa kit). Type of data set: cell-based. Details: Caspase 3 Conc. (Average): unit not given here. The method, then: Untreated AR^+LNCaP and Enzalutamide-treated AR^+LNCaP were used as negative and positive controls, respectively. AR^+LNCaP cells were cultured in 96-well plates at a cell density of 1 × 10^4 cells/well. Cells were then lysed with 50 µL lysis buffer/well supplemented with the Invitrogen Elisa kit for detection of active human caspase-3 (Invitrogen, Camarillo, CA, USA). Plates were frozen at −80 °C for 30 min and then thawed. The lysate was mixed with 2 Z-DEVD-R110 substrate and incubated at room temperature for 30 min. A fluorescence microplate reader (Tecan, Mainz-Kastel, Germany), was used to measure fluorescence via excitation at 496 nm and emission detection at 520 nm. Values were normalized with total protein content. Active caspase 3 accumulation was determined based on standard dilution series of Human Caspase-3 samples provided with the kit. […]

Data set [6] relates to AR+LNCaP cells. Description: DNA content at cell cycle stages (Propidium Iodide flow cytometry). The data set is classed as cell-based, human. To be noted: IC50 concentration, 1 nM DHT. The method, then:
The amount of DNA contents of AR^+LNCaP cells stimulated with 1 nM DHT and treated with representative test compounds 3i and 3k at the different stages of the cell cycle were quantitatively evaluated as described previously. […] The Ab139418–Propidium Iodide Flow Cytometry Kit for Cell Cycle Analysis (ab139418, Abcam, Cambridge, UK) was employed for this assay following the procedures provided by the supplier.
Firstly, the ab139418-Propidium Iodide Flow Cytometry Kit for Cell Cycle Analysis (Bio vision, Boston, MA, USA) was used to quantify DNA contents at each cell cycle stage as an indicator of the cell cycle growth arrest.

Take `O=C1NC(=S)NC1=Cc1cn(-c2ccccc2)nc1-c1ccc(F)cc1` [Compound 3a, 5-((3-(4-Fluorophenyl)-1-phenyl-1H-pyrazol-4-yl)methylene)-2-thioxoimidazolidin-4-one]: the melting point is 186 to 188 °C. In data set [1], the IC50 was determined as 63.27 ± 0.18 µM. Further, in data set [2], the midpoint of inhibition, the IC50, lay at 16.8 ± 0.34 µM and the “Selective Index Wi38/PC-3” value was determined as 3.8. For the same compound, in data set [3], the IC50 turned out to be 26.57 ± 0.04 µM and the “Selective Index Wi38/Lncap” value is given as 2.4.
`O=C1NC(=S)NC1=Cc1cn(-c2ccccc2)nc1-c1ccc(Cl)cc1` [Compound 3b, 5-((3-(4-Chlorophenyl)-1-phenyl-1H-pyrazol-4-yl)methylene)-2-thioxoimidazolidin-4-one] registered a melting point of 183 to 184 °C. The compound also displayed an IC50 in data set [1] of 24.26 ± 0.06 µM. Also, in data set [2], the IC50 came out at 21.92 ± 0.12 µM and the “Selective Index Wi38/PC-3” value turned out to be 0.9. In data set [3], the half-maximal inhibitory concentration (IC50) is 20.79 ± 0.06 µM and the “Selective Index Wi38/Lncap” value is 1.0.
Consider `O=C1NC(=S)NC1=Cc1cn(-c2ccccc2)nc1-c1ccc(Br)cc1` [Compound 3c, 5-((3-(4-Bromophenyl)-1-phenyl-1H-pyrazol-4-yl)methylene)-2-thioxoimidazolidin-4-one], for which the melting point fell in the range of 193 to 195 °C. Half-maximal inhibition in data set [1] (IC50) required 87.9 ± 2.96 µM. In addition, in data set [2], 20.9 ± 1.12 µM corresponded to half-maximal inhibition (IC50) and the “Selective Index Wi38/PC-3” value is recorded as 4.2. For the same compound, in data set [3], the IC50 amounted to 110 ± 2.06 µM and the “Selective Index Wi38/Lncap” value is 0.8.
Compound `O=C1NC(=S)NC1=Cc1cn(-c2ccccc2)nc1-c1ccc(C(F)(F)F)cc1` [Compound 3d, 5-((1-Phenyl-3-(4-(trifluoromethyl)phenyl)-1H-pyrazol-4-yl)methylene)-2-thioxoimidazolidin-4-one] had a melting point of 183 to 185 °C. The compound also yielded an IC50 in data set [1] of 48.19 ± 0.21 µM. In data set [2], it took 177.2 ± 0.61 µM to reach half-maximal inhibition (IC50) and the “Selective Index Wi38/PC-3” value is given as 0.3. For the same compound, in data set [3], half-maximal inhibition (IC50) was put at 23.5 ± 0.74 µM and the “Selective Index Wi38/Lncap” value is 2.0.
Take `O=C1NC(=S)NC1=Cc1cn(-c2ccccc2)nc1-c1ccccc1` [Compound 3e, 5-((1,3-Diphenyl-1H-pyrazol-4-yl)methylene)-2-thioxoimidazolidin-4-one]: the melting point was 168 to 179 °C. Further, in data set [1], half-maximal inhibition (IC50) required 63.24 ± 0.26 µM. Also, in data set [2], the IC50 amounted to 20.1 ± 0.21 µM and the “Selective Index Wi38/PC-3” value is on record as 3.2. Besides, in data set [3], the IC50 is 33.9 ± 0.12 µM and the “Selective Index Wi38/Lncap” value is given as 1.9.
With `Cc1ccc(-c2nn(-c3ccccc3)cc2C=C2NC(=S)NC2=O)cc1` [Compound 3f, 5-((1-Phenyl-3-(p-tolyl)-1H-pyrazol-4-yl)methylene)-2-thioxoimidazolidin-4-one], the melting point was 189 to 191 °C. The compound also registered a concentration for half-maximal inhibition (IC50) in data set [1] of 56.56 ± 0.14 µM. Besides, in data set [2], the IC50 is 20.19 ± 0.04 µM and the “Selective Index Wi38/PC-3” value amounted to 2.8. In data set [3], 54.19 ± 0.11 µM corresponded to half-maximal inhibition (IC50) and the “Selective Index Wi38/Lncap” value came to 1.0.
Compound `Nc1ccc(-c2nn(-c3ccccc3)cc2C=C2NC(=S)NC2=O)cc1` [Compound 3g, 5-((3-(4-Aminophenyl)-1-phenyl-1H-pyrazol-4-yl)methylene)-2-thioxoimidazolidin-4-one] yielded a melting point of 195 to 197 °C. Also, the IC50 in data set [1] turned out to be 56.62 ± 0.16 µM. Also, in data set [2], 26.8 ± 0.39 µM corresponded to half-maximal inhibition (IC50) and the “Selective Index Wi38/PC-3” value was determined as 2.1. For the same compound, in data set [3], half-maximal inhibition (IC50) required 47.31 ± 0.18 µM and the “Selective Index Wi38/Lncap” value turned out to be 1.2.
On to `O=C1NC(=S)NC1=Cc1cn(-c2ccc(F)cc2)nc1-c1ccc(F)cc1` [Compound 3h, 5-((1,3-Bis(4-fluorophenyl)-1H-pyrazol-4-yl)methylene)-2-thioxoimidazolidin-4-one], for which the melting point lay in the range of 178 to 179 °C. Further, the IC50 in data set [1] turned out to be 20.96 ± 0.13 µM. For the same compound, in data set [2], the IC50 turned out to be 18.8 ± 0.14 µM and the “Selective Index Wi38/PC-3” value amounted to 1.0. In addition, in data set [3], 19.48 ± 0.05 µM corresponded to half-maximal inhibition (IC50) and the “Selective Index Wi38/Lncap” value was 1.0.
Turning to `O=C1NC(=S)NC1=Cc1cn(-c2ccc(F)cc2)nc1-c1ccccc1` [Compound 3l, 5-((1-(4-Fluorophenyl)-3-phenyl-1H-pyrazol-4-yl)methylene)-2-thioxoimidazolidin-4-one], the melting point fell in the range of 189 to 191 °C. This compound came in with an IC50 in data set [1] of 26.81 ± 0.06 µM. In data set [2], the IC50 was 15.3 ± 0.04 µM and the “Selective Index Wi38/PC-3” value is 1.8. For the same compound, in data set [3], it took 20.8 ± 0.04 µM to reach half-maximal inhibition (IC50) and the “Selective Index Wi38/Lncap” value is 1.3.
`COc1ccc(-c2nn(-c3ccc(F)cc3)cc2C=C2NC(=S)NC2=O)cc1` [Compound 3n, 5-((1-(4-Fluorophenyl)-3-(4-methoxyphenyl)-1H-pyrazol-4-yl)methylene)-2-thioxoimidazolidin-4-one] came in with a melting point of 179 to 181 °C. The compound further had an IC50 in data set [1] of 26.93 ± 0.09 µM. Moreover, in data set [2], the midpoint of inhibition, the IC50, lay at 23.25 ± 0.08 µM and the “Selective Index Wi38/PC-3” value is recorded as 1.2. Further, in data set [3], the midpoint of inhibition, the IC50, lay at 15.02 ± 0.15 µM and the “Selective Index Wi38/Lncap” value was 1.8.
Regarding `COc1cccc2c1C(=O)c1c(O)c3c(c(O)c1C2=O)C[C@@](O)(C(=O)CO)C[C@@H]3O[C@H]1C[C@H](N)[C@H](O)[C@H](C)O1` [Doxorubicin, reference compound], inhibition in data set [1] was half-maximal at 15.14 ± 0.12 µM (IC50). Further, in data set [2], half-maximal inhibition (IC50) required 10 ± 0.18 µM and the “Selective Index Wi38/PC-3” value is 1.5. For the same compound, in data set [3], 11.4 ± 0.16 µM corresponded to half-maximal inhibition (IC50) and the “Selective Index Wi38/Lncap” value turned out to be 1.3.
In the case of `CNC(=O)c1ccc(N2C(=S)N(c3ccc(C#N)c(C(F)(F)F)c3)C(=O)C2(C)C)cc1F` [Enzalutamide, reference compound], in the data set with AR+LNCaP cells [4], the “Early Apoptosis (%)” value is given as 9.46%, the “Late Apoptosis (%)” value was 21.27%, the “Necrotic Cells (%)” value is 3.13% and the “Total Apoptosis (%)” value came to 33.86%. Also, in data set [5] (LNCaP, fold of control, supplement lab report), the “Caspase 3 fld” value was found to be 6.923. Moreover, the “Caspase 3” value in data set [5] (LNCaP, supplement lab report) came to 532.4 pg/mL. In addition, in data set [5] (supplement ELISA read-out, average of two wells), the “Caspase 3 Conc. (Average)” value came to 532.4. Besides, in the data set with AR+LNCaP cells [6], the “DNA Content (%) G0–G1” value is given as 61.02% and the “DNA Content (%) G2/M” value amounted to 25.37%.
